Where two headings read alike, the source gives them in different places. One block for each molecule: values may come before it.
How the values were obtained:
[1] = Optical and photophysical properties of metallotexaphyrins (laser flash photolysis, fluorescence, singlet oxygen luminescence); type: physicochemical; set-up: tt (triplet lifetime): unit not given here; conditions: CH3 OH; for Absorption gmax (Soret-type band): first value (Soret); for Absorption gmax (Q-type band): second value (Q-type); for D^1 O2 (singlet oxygen quantum yield) / Df (fluorescence quantum yield): ±10%
From the text: Finally, several complexes containing paramagnetic metal ions (e.g. Mn^II, Sm^III, and Eu^III, structures 5c -7c) were investigated.
Comparison of the initial intensity with that obtained using tetrakis (4-hydroxyphenyl)porphyrin (THPP) as photosensitizer^3b under identical conditions allowed calculation of the quantum yields for production of singlet oxygen (^.phi. 1.cndot.2).

[2] = Stability to demetallation (sulfide, thiosulfate); type: physicochemical; conditions: for demetallation by sulfide: aqueous Na2 S / excess sulfide anion
From the text: The above K1 and K2 (or K1 K2) values are predicated on the assumption that the cadmium complexes under discussion are stable with regards to demetallation and that the equilibria of equations 1 and 2 (or 3) pertain under the conditions of base binding. The first of these concerns is readily apparent: If demetallation occurs, then obviously one is not studying base binding! […] The second concern is particularly important within the context of quantitative work: If, for instance, the starting complex 3.cndot.NO3 is not rigorously five coordinate, then K1 (and perhaps K2 as well) would represent an axial ligand displacement reaction rather than a pure addition process as implied above. Control experiments indicate that the assumption of initial five coordination is reasonable: Independent titrations of 3A .cndot.NO3 with NH4 NO3 and H2 O indicate that only modest and monotonic changes in the chemical shift of the "meso" signals take place over the course of adding ≥50 equivalents of these potentially adventitious ligands.^40 This means that either "complete" binding occurs at 1:1 stoichiometry (essentially ruled out in the case of H2 O on the basis of analytical data), or that these species are poorly coordinating in CHCl3 so that five coordination pertains about cadmium; the latter interpretation appearing more likely.
(§1) Attempts to demetallate complex 3A .cndot.NO3 were made. In an effort to obtain the free sp^2 bridged ligand 2A, the above complex in chloroform was stirred for several hours in the presence of sodium sulfide and independently with sodium thiosulfate. […] In the case of sodium sulfide, this critical conclusion was further supported by FAB MS: Other than the starting cationic complex 3A, no evidence was obtained for any moderate to high molecular weight volatile products in the mass spectrum. […] The rate of this process, however, is strongly pH dependent, the half-life being, for instance, on the order of several hours in the presence of ca. 0.1N HCl.

[3] = Hydrolysis in aqueous acid; type: physicochemical
From the text: as §1

[4] = set-up: tt (triplet lifetime): unit not given here; conditions: benzene, see reference 4, cited from earlier work
[5] = Axial base binding of benzimidazole, 1H NMR spectral titration; conditions: for conversion to six coordinate form (4bA): ca. 5×10^-3 M
From the text: (§2) For a rigorously five coordinate starting cadmium complex, such as that represented schematically by structure 3A, where neither the counter anion nor adventitious ligands serves to occupy an apical coordination site, base binding can be considered to occur in accord with equations (1) and (2) shown below. Under conditions where K1 […]K2, these processes can be considered to occur sequentially, giving first a monoligated, presumably pentagonal pyramidal six coordinate species (such as 4bA), followed by a coordinatively saturated bisligated pentagonal bipyramidal product akin to 5aA. Where, however, K2 >>K1this stepwise conceptual approach is invalid. Under these conditions, it becomes easier to analyze the base binding in terms of direct formation of the bisligated material as shown in equation (3).
(§3) L+B LB K1 =[LB]/[L][B] (1)
(§4) LB+B LB2 K2 =[LB2 ]/[LB][B] (2)
(§5) L+2B LB2 K1 K2 =[LB2 ]/[L][B]^2 (3)
(§6) The ^1 H NMR titration of 3A .cndot.NO3 with BzIm or pyr-D5 was done. Rigorously purified complex 3A .cndot.NO3 was dried at 80° C. under reduced pressure (1 mmHg) for 1 day. Starting samples for titration were then prepared by dissolving this five coordinate complex (3.32 mg, 0.005 mmol) in 0.7 to 0.75 ml of CDCl3 and transferring quantitatively to an NMR tube. To such samples were then added increasing aliquots of either BzIm or pyr-D5 (as solutions of known concentration in CDCl3) and recording the chemical shift of the "meso" protons at 27^Q C. Control experiments were also carried out by adding known quantities of CF3 CO2 H, D2 O, and NH4 NO3 to similar stock solutions of 3.cndot.NO3.
Determination of Binding Constants. […] The chemical shift data obtained for the "meso" signals as a function of added BzIm were thus analyzed as such at both very low and very high conversion: Standard Scatchard (single reciprocal) plots^38 were constructed by plotting (δ-δo)/[BzIm] vs (δ-δo) according to equation 4 (which corresponds to eq. 5.13 of ref. 38), obtaining K as the absolute value of the slope and the term (δ.infin. -δo)K as the intercept.
(δ-δo)/[BzIm]=-K(δ-δo)+(δ.infi
Here δ is the observed chemical shift, δo is the initial chemical shift of the pure five or six coordinate starting complex (3A .cndot.NO3 or 4bA --NO3), δ.infin. the chemical shift calculated for the final mono- or bisligated complexes 4bA .cndot.NO3 or 5aA .cndot.NO3, K the equilibrium constant in question, and [BzIm] the concentration of free, uncomplexed benzimidazole. […] This was done in a straightforward manner according to the expressions given in equations 5 and 6, where [lig]o represents the concentration of the starting five coordinate ligand 3A .cndot.NO3.
(δ-δo)/δ.infin. -δo) at low
[BzIm].congruent.[BzIm]o -[lig]o at high [BzIm]o (6)
Using these corrected values for [BzIm], straight line Scatchard plots were obtained with R[…]0.99 and 0.98 respectively for the low and high [BzIm]o regimes giving values of K1 and K2 of 1.80×10^4 M^-1 and 12.9 M^-1 respectively.

[6] = Axial base binding of pyridine, 1H NMR spectral titration
From the text: as §2, §3, §4, §5, §6
The changes in "meso" proton chemical shift as a function of added [pyr] shown in FIG. 15 indicate a clear […] of two distinct binding regimes. Moreover as expected, attempts to fit the data as a simple monoligation process (to give 6CN material) according to eq. […] This was done using the convenient iterative procedure outlined by Connors.^38 Here the equations of interest, corresponding to eqs. 4.31 and 4.32 of Connors,^38 as adopted for NMR analyses, are:
[pyr]{Δ12 /(δ-δo)-1}-K1 (7)
(δ-δo) {1+K1 [pyr]+K1 K2 [pyr]^2
where δ is the observed chemical shift, δo is the initial chemical shift of the pure five coordinate starting complex 3.cndot.NO3, All is the total chemical shift difference corresponding to the formation of the pure putative monoligated six coordinate species, Δ12 is the total chemical shift corresponding to the formation of the bisligated cationic species 5a from the initial five coordinate material, and [pyr] is the free pyridine concentration. A precise expression for [pyr] is given by equation 9,^38 where [pyr]o is the concentration total added pyridine, and [lig]o represents the concentration of the starting five coordinate ligand 3A .cndot.NO3.
[pyr]o =[pyr]+[lig]o (K1 [pyr]+2K1 K2
[pyr]^2)/(1+K1 [pyr]+K1 K2 [pyr]^2)(9)
Initial iterative solutions of eqs. 7 (plotting 1/[pyr]-K1 Δ11 /(δ-δo) vs. [pyr]{Δ12 /δ-δo)-1}, giving K1 K2 and -K1 as the slope and intercept respectively) and 8 (plotting (δ-δo) {1+K1 [pyr]+K1 K2 [pyr]^2 }/[pyr] vs. [pyr], giving K1 K2 Δ12 and K1 Δ11 as the slope and intercept respectively) were therefore made using this greatly simplifying assumption. They converged quickly to give initial, uncorrected values of K1 =1.5M^-1 and K1 K2 =308M^-2. […]

[7] = 1:1 methanol/water

Absorption gmax (Soret-type band) [1]: 450 nm
Absorption gmax (Q-type band) [1]: 763 nm
D^1 O2 (singlet oxygen quantum yield) [1]: < 0.05
Df (fluorescence quantum yield) [1]: < 0.001
SMILES: CCC1=C(C)c2cnc3cc(C)c(C)cc3ncc3nc(cc4[n-]c(cc1n2)c(CC)c4CC)C(CC)=C3C.[OH-].[OH-].[Sm+3] [6C (OH)2]

SMILES: CCC1=C(C)c2cnc3ccccc3ncc3nc(cc4[n-]c(cc1n2)c(CC)c4CC)C(CC)=C3C.[Mn+2].[OH-] [5C OH]
Absorption gmax (Soret-type band) [1]: 420 nm
Absorption gmax (Q-type band) [1]: 760 nm
D^1 O2 (singlet oxygen quantum yield) [1]: < 0.05
Df (fluorescence quantum yield) [1]: < 0.001

SMILES: CCC1=C(C)c2cnc3ccccc3ncc3nc(cc4[n-]c(cc1n2)c(CC)c4CC)C(CC)=C3C.[Cd+2].c1ccncc1.c1ccncc1 [complex 4]
demetallation by sulfide [2]: no demetallation takes place
stability relative to cadmium porphyrins ([2]; neutral conditions / base binding controls): more stable than cadmium porphyrins
hydrolysis in aqueous acid [3]: leads to hydrolysis of the macrocyle

SMILES: CCC1=C(C)c2cnc3ccc(Cl)cc3ncc3nc(cc4[n-]c(cc1n2)c(CC)c4CC)C(CC)=C3C.O=[N+]([O-])[O-].[Cd+2] [4C NO3]
Emission gmax [1]: 788 nm
S (= phi 1O2 / phi t) [1]: 0.76
tt (triplet lifetime) ([1]; deoxygenated): 36
Absorption gmax (Soret-type band) [1]: 421 nm
Absorption gmax (Q-type band) [1]: 760 nm
Dt (triplet quantum yield) ([1]; ±5%): 0.97
D^1 O2 (singlet oxygen quantum yield) [1]: 0.74
Df (fluorescence quantum yield) [1]: 0.009

SMILES: C1=Cc2nc1c(-c1ccccc1)c1ccc([nH]1)c(-c1ccccc1)c1nc(c(-c3ccccc3)c3ccc([nH]3)c2-c2ccccc2)C=C1.[Cd].c1ccncc1 [CdTPP(pyr), reference compound]
demetallation by sulfide [2]: leads to cation loss and precipitation of CdS

SMILES: CCCCCC[Si](CCCCCC)(CCCCCC)O[Si]1(O[Si](CCCCCC)(CCCCCC)CCCCCC)n2c3c4cc5ccccc5cc4c2N=C2N=C(N=c4c5cc6ccccc6cc5c(n41)=NC1=NC(=N3)c3cc4ccccc4cc31)c1cc3ccccc3cc12 [SiNC, bis(trin-hexylsiloxy)(2,3-naphthalocyaninato) silicon]
Absorption gmax (first value) [4]: 310 nm
Absorption gmax (second value) [4]: 776 nm
Emission gmax [4]: 780 nm
S (= phi 1O2 / phi t) [4]: 0.90
tt (triplet lifetime) [4]: 331
Dt (triplet quantum yield) ([4]; ±5%): 0.39
D^1 O2 (singlet oxygen quantum yield) ([4]; ±10%): 0.35

SMILES: CCC1=C(C)c2cnc3ccccc3ncc3nc(cc4[n-]c(cc1n2)c(CC)c4CC)C(CC)=C3C.[Cd+2].c1ccc2[nH]cnc2c1 [4bA]
conversion to bisligated seven coordinate form (5bA) ([5]; 10 molar equivalents of BzIm): 35%

Absorption gmax (Soret-type band) [1]: 451 nm
Absorption gmax (Q-type band) [1]: 762 nm
D^1 O2 (singlet oxygen quantum yield) [1]: < 0.05
Df (fluorescence quantum yield) [1]: < 0.001
SMILES: CCC1=C(C)c2cnc3cc(C)c(C)cc3ncc3nc(cc4[n-]c(cc1n2)c(CC)c4CC)C(CC)=C3C.[Eu+3].[OH-].[OH-] [7C (OH)2]

SMILES: CCC1=C(C)C2=[N+]3C1=Cc1c(CC)c(CC)c4[n]1[Cd-3]315[N+](=C2)c2ccccc2[N+]1=CC1=[N+]5C(=C4)C(CC)=C1C.O=[N+]([O-])[O-] [3A .cndot.NO3]
demetallation by sulfide [2]: little or no demetallation occurs
changes in optical properties on treatment with sodium sulfide or sodium thiosulfate ([2]; chloroform, several hours): No significant changes in optical properties were observed
conversion to pentagonal bipyramidal product (5aA) ([6]; 3 equivalents of pyridine): ca. 5%
conversion to pentagonal bipyramidal product (5aA) ([6]; 10 equivalents of pyridine): roughly 35%
K1 K2 (pyridine) ([6]; CDCl3, final values, estimated error ≤10%): 315 M^-2
K1 K2 (pyridine) ([6]; CDCl3, final values, estimated error ≤10%, listed as 3A.cndot.NO3): 315±30 M^-2
K1 K2 (pyridine) ([6]; initial, uncorrected): 308 M^-2
hydrolysis in aqueous acid [3]: appears to undergo hydrolysis (at the imine residues) and hence demetallation
half-life for hydrolysis/demetallation ([3]; ca. 0.1N HCl): several hours
conversion to six coordinate form (4bA) ([5]; 0.2 molar equivalents of BzIm): roughly 20%
conversion to six coordinate form (4bA) ([5]; 1.0 molar equivalent of BzIm): 90%
K1 K2 (benzimidazole) ([5]; CDCl3, iterative approach): 1.9×10^5 M^-2
Kd ([5]; CDCl3, iterative approach, read-out: K1 (benzimidazole) (converted)): 50 µM
Kd ([5]; CDCl3, very high conversion, read-out: K2 (benzimidazole) (converted)): 76900 µM
Kd ([5]; CDCl3, very low conversion, read-out: K1 (benzimidazole) (converted)): 55.6 µM

SMILES: CCC1=C(C)c2cnc3ccccc3ncc3nc(cc4[n-]c(cc1n2)c(CC)c4CC)C(CC)=C3C.[Y+3] [Y^3+ complex of texaphyrin]
half-lives for decomplexation and/or ligand decomposition [7]: exceed 3 weeks

— patent publication US5587463A, “Texaphyrin macrocycles and metal complexes thereof” (Board of Regents, The University of Texas System, priority 1994, dated 1996)
